Laboratory results published in ChEMBL document CHEMBL4428061, “Effects of 5-O-Ribosylation of Aminoglycosides on Antimicrobial Activity and Selective Perturbation of Bacterial Translation” (J Med Chem, 2016).
≈ marks a conversion by molar mass, not a printed value.

Key:
Pseudomonas aeruginosa [1] = assay: Antimicrobial activity against Pseudomonas aeruginosa ATCC 47085 measured after 24 hrs by double-dilution method; assay type: functional; conditions: ATCC 47085, 24 h
Pseudomonas aeruginosa [2] = assay: Antimicrobial activity against Pseudomonas aeruginosa ATCC 27853 measured after 24 hrs by double-dilution method; assay type: functional; conditions: ATCC 27853, 24 h
Haemophilus influenzae [3] = assay: Antimicrobial activity against Haemophilus influenzae ATCC 49247 measured after 24 hrs by double-dilution method; assay type: functional; conditions: ATCC 49247, 24 h
Haemophilus influenzae [4] = assay: Antimicrobial activity against Haemophilus influenzae ATCC 10211 measured after 24 hrs by double-dilution method; assay type: functional; conditions: ATCC 10211, 24 h
Klebsiella pneumoniae [5] = assay: Antimicrobial activity against Klebsiella pneumoniae ATCC 13883 measured after 24 hrs by double-dilution method; assay type: functional; conditions: ATCC 13883, 24 h
Klebsiella pneumoniae [6] = assay: Antimicrobial activity against Klebsiella pneumoniae ATCC 10031 measured after 24 hrs by double-dilution method; assay type: functional; conditions: ATCC 10031, 24 h
Escherichia coli [7] = assay: Antimicrobial activity against Escherichia coli ATCC 25922 measured after 24 hrs by double-dilution method; assay type: functional; conditions: ATCC 25922, 24 h
Acinetobacter baumannii = assay: Antimicrobial activity against Acinetobacter baumannii ATCC 19606 measured after 24 hrs by double-dilution method; assay type: functional; conditions: ATCC 19606 = CIP 70.34 = JCM 6841, 24 h
Burkholderia cepacia = assay: Antimicrobial activity against aminoglycoside-resistant Burkholderia cepacia ATCC 25416 measured after 24 hrs by double-dilution method; assay type: functional; conditions: ATCC 25416, 24 h
Escherichia coli [8] = assay: Antimicrobial activity against aminoglycoside-resistant Escherichia coli ATCC BAA-2452 measured after 24 hrs by double-dilution method; assay type: functional; conditions: ATCC BAA-2452, 24 h
Klebsiella pneumoniae [9] = assay: Antimicrobial activity against aminoglycoside-resistant Klebsiella pneumoniae ATCC BAA-2470 measured after 24 hrs by double-dilution method; assay type: functional; conditions: ATCC BAA-2470, 24 h
Ribosomal RNA A-site = assay: Binding affinity to 16S rRNA A-site in Escherichia coli S30 extract assessed as inhibition of translation measured after 30 mins by coupled transcription/translation-based luciferase reporter gene assay; assay type: nucleic-acid assay
[10] = Inhibition of cytosolic eukaryotic translation in rabbit reticulocyte S30 extract measured after 60 mins by coupled transcription/translation-based luciferase reporter gene assay; parameters: species or system Oryctolagus cuniculus
[11] = tested on: cytosolic eukaryotic translation versus 16S rRNA A-site; assay: Selectivity ratio, ratio of IC50 for cytosolic eukaryotic translation in rabbit reticulocyte S30 extract to IC50 for 16S rRNA A-site in Escherichia coli S30 extract; assay type: toxicity; conditions: read-out: Ratio IC50
[12] = Acute toxicity in iv dosed rat; assay type: organism-based; conditions: in vivo

Structure (SMILES) | MIC (Pseudomonas aeruginosa [1]) | MIC (Pseudomonas aeruginosa [2]) | MIC (Haemophilus influenzae [3]) | MIC (Haemophilus influenzae [4]) | MIC (Klebsiella pneumoniae [5]) | MIC (Klebsiella pneumoniae [6]) | MIC (Escherichia coli [7]) | MIC (Acinetobacter baumannii) | MIC (Burkholderia cepacia) | MIC (Escherichia coli [8]) | MIC (Klebsiella pneumoniae [9]) | IC50 (Ribosomal RNA A-site) | IC50 [10] | selectivity ratio [11] | LD50 [12]
NC[C@H]1O[C@H](O[C@H]2[C@H](O[C@@H]3O[C@H](CO)[C@@H](O)[C@H]3O)[C@@H](O[C@H]3O[C@H](CO)[C@@H](O)[C@H](N)[C@H]3O)[C@H](N)C[C@@H]2N)[C@H](N)C[C@@H]1O | 2 µg/mL (≈ 3.34 µM) | 4 µg/mL (≈ 6.67 µM) | 8 µg/mL (≈ 13.3 µM) | 8 µg/mL (≈ 13.3 µM) | 2 µg/mL (≈ 3.34 µM) | 2 µg/mL (≈ 3.34 µM) | 4 µg/mL (≈ 6.67 µM) | 32 µg/mL (≈ 53.4 µM) | > 32 µg/mL | > 32 µg/mL | > 32 µg/mL | 0.08 µM | 49.1 µM | 614 | –
NC[C@H]1O[C@H](O[C@H]2[C@H](O[C@@H]3O[C@H](CO)[C@@H](O)[C@H]3O)[C@@H](O[C@H]3O[C@H](CO)[C@@H](O)[C@H](N)[C@H]3O)[C@H](N)C[C@@H]2N)[C@H](N)[C@@H](O)[C@@H]1O | > 32 µg/mL | > 32 µg/mL | 8 µg/mL (≈ 13 µM) | 8 µg/mL (≈ 13 µM) | 4 µg/mL (≈ 6.5 µM) | 4 µg/mL (≈ 6.5 µM) | 4 µg/mL (≈ 6.5 µM) | > 32 µg/mL | > 32 µg/mL | > 32 µg/mL | > 32 µg/mL | 0.03 µM | 43.8 µM | 1460 | –
NCC[C@H](O)C(=O)N[C@@H]1C[C@H](N)[C@@H](O[C@H]2O[C@H](CN)[C@@H](O)[C@H](O)[C@H]2O)[C@H](O[C@@H]2O[C@H](CO)[C@@H](O)[C@H]2O)[C@H]1O[C@H]1O[C@H](CO)[C@@H](O)[C@H](N)[C@H]1O | > 32 µg/mL | > 32 µg/mL | > 32 µg/mL | > 32 µg/mL | > 32 µg/mL | > 32 µg/mL | > 32 µg/mL | > 32 µg/mL | > 32 µg/mL | > 32 µg/mL | > 32 µg/mL | 6.44 µM | 193 µM | 30 | –
NC[C@H]1O[C@H](O[C@H]2[C@H](O[C@@H]3O[C@H](CO)[C@@H](O)[C@H]3O)[C@@H](O)[C@H](N)C[C@@H]2N)[C@H](N)C[C@@H]1O | 4 µg/mL (≈ 9.12 µM) | 4 µg/mL (≈ 9.12 µM) | 4 µg/mL (≈ 9.12 µM) | 4 µg/mL (≈ 9.12 µM) | 8 µg/mL (≈ 18.2 µM) | 4 µg/mL (≈ 9.12 µM) | 2 µg/mL (≈ 4.56 µM) | 32 µg/mL (≈ 73 µM) | > 32 µg/mL | > 32 µg/mL | > 32 µg/mL | 0.11 µM | 135 µM | 1230 | –
NC[C@H]1O[C@H](O[C@H]2[C@H](O)[C@@H](O)[C@H](N)C[C@@H]2N)[C@H](N)C[C@@H]1O | > 32 µg/mL | > 32 µg/mL | > 32 µg/mL | > 32 µg/mL | > 32 µg/mL | > 32 µg/mL | 16 µg/mL (≈ 52.2 µM) | > 32 µg/mL | > 32 µg/mL | > 32 µg/mL | > 32 µg/mL | 0.43 µM | 121 µM | 282 | –
NCC[C@H](O)C(=O)N[C@@H]1C[C@H](N)[C@@H](O[C@H]2O[C@H](CN)[C@@H](O)[C@H](O)[C@H]2O)[C@H](O)[C@H]1O[C@H]1O[C@H](CO)[C@@H](O)[C@H](N)[C@H]1O [AMIKACIN] | 4 µg/mL (≈ 6.83 µM) | 8 µg/mL (≈ 13.7 µM) | 32 µg/mL (≈ 54.6 µM) | 32 µg/mL (≈ 54.6 µM) | 4 µg/mL (≈ 6.83 µM) | 4 µg/mL (≈ 6.83 µM) | 2 µg/mL (≈ 3.42 µM) | 4 µg/mL (≈ 6.83 µM) | > 32 µg/mL | > 32 µg/mL | > 32 µg/mL | 0.07 µM | 64.6 µM | 923 | –
NC[C@H]1O[C@H](O[C@H]2[C@H](O)[C@@H](O[C@H]3O[C@H](CO)[C@@H](O)[C@H](N)[C@H]3O)[C@H](N)C[C@@H]2N)[C@H](N)[C@@H](O)[C@@H]1O [BEKANAMYCIN] | > 32 µg/mL | > 32 µg/mL | 4 µg/mL (≈ 8.27 µM) | 2 µg/mL (≈ 4.14 µM) | 1 µg/mL (≈ 2.07 µM) | 1 µg/mL (≈ 2.07 µM) | 4 µg/mL (≈ 8.27 µM) | 4 µg/mL (≈ 8.27 µM) | > 32 µg/mL | > 32 µg/mL | > 32 µg/mL | 0.04 µM | 28.9 µM | 722 | –
NC[C@H]1O[C@H](O[C@H]2[C@H](O)[C@@H](O[C@H]3O[C@H](CO)[C@@H](O)[C@H](N)[C@H]3O)[C@H](N)C[C@@H]2N)[C@H](O)[C@@H](O)[C@@H]1O [KANAMYCIN] | > 32 µg/mL | > 32 µg/mL | 8 µg/mL (≈ 16.5 µM) | 8 µg/mL (≈ 16.5 µM) | 4 µg/mL (≈ 8.26 µM) | 4 µg/mL (≈ 8.26 µM) | 4 µg/mL (≈ 8.26 µM) | 8 µg/mL (≈ 16.5 µM) | > 32 µg/mL | > 32 µg/mL | > 32 µg/mL | 0.1 µM | 111 µM | 1110 | –
NC[C@H]1O[C@H](O[C@H]2[C@H](O)[C@@H](O)[C@H](N)C[C@@H]2N)[C@H](N)[C@@H](O)[C@@H]1O [NEAMINE] | > 32 µg/mL | > 32 µg/mL | 32 µg/mL (≈ 99.3 µM) | 32 µg/mL (≈ 99.3 µM) | 16 µg/mL (≈ 49.6 µM) | 16 µg/mL (≈ 49.6 µM) | 16 µg/mL (≈ 49.6 µM) | > 32 µg/mL | > 32 µg/mL | > 32 µg/mL | > 32 µg/mL | 0.46 µM | 99 µM | 215 | 121 to 129 mg/kg
NC[C@H]1O[C@H](O[C@H]2[C@H](O[C@@H]3O[C@H](CO)[C@@H](O)[C@H]3O)[C@@H](O)[C@H](N)C[C@@H]2N)[C@H](N)[C@@H](O)[C@@H]1O [RIBOSTAMYCIN] | > 32 µg/mL | > 32 µg/mL | 8 µg/mL (≈ 17.6 µM) | 8 µg/mL (≈ 17.6 µM) | 8 µg/mL (≈ 17.6 µM) | 8 µg/mL (≈ 17.6 µM) | 4 µg/mL (≈ 8.8 µM) | 16 µg/mL (≈ 35.2 µM) | > 32 µg/mL | > 32 µg/mL | > 32 µg/mL | 0.09 µM | 116 µM | 1290 | –
NC[C@H]1O[C@H](O[C@H]2[C@H](O)[C@@H](O[C@H]3O[C@H](CO)[C@@H](O)[C@H](N)[C@H]3O)[C@H](N)C[C@@H]2N)[C@H](N)C[C@@H]1O [TOBRAMYCIN] | 1 µg/mL (≈ 2.14 µM) | 1 µg/mL (≈ 2.14 µM) | 4 µg/mL (≈ 8.56 µM) | 4 µg/mL (≈ 8.56 µM) | 1 µg/mL (≈ 2.14 µM) | 1 µg/mL (≈ 2.14 µM) | 2 µg/mL (≈ 4.28 µM) | 2 µg/mL (≈ 4.28 µM) | > 32 µg/mL | > 32 µg/mL | > 32 µg/mL | 0.07 µM | 42.3 µM | 605 | –
